Earlier results on 2 molecules are cited in patent US20110118360A1, “AGENT FOR ACTIVATING STEM CELLS” (priority 2008, published 2011).

In series [1] the test system is 26S proteasome.
Series [2] deals with mesenchymal stem cells.
The subject of series [3] is neutrophils. The conditions noted are these: shortened from 5.

Take `CC(C)C[C@H](NC(=O)[C@H](Cc1ccccc1)NC(=O)c1cnccn1)B(O)O` [bortesomib, [(1R)-3-methyl-1 [[(2S)-1-oxo-3-phenyl-2-[(pirasinilcarbonil)amino]propyl]amino]butyl]]: the “effect on 26S proteasome activity” value in series [1] was “highly selective reversible inhibitor”. Also, in series [2], the “effect on mesenchymal stem cells” value is “direct pharmacological effect on mesenchymal stem cells”.

B1: Filgastrim: glycoprotein consisting of 175 amino acids obtained by expression of a human gene in E. coli (protein, chains of the INN, looked up)
chain: MTPLGPASSLPQSFLLKCLEQVRKIQGDGAALQEKLCATYKLCHPEELVLLGHSLGIPWAPLSSCPSQALQLAGCLSQLHSGLFLYQGLLQALEGISPELGPTLDTLQLDVADFATTIWQQMEELGMAPALQPTQGAMPAFASAFQRRAGGVLVASHLQSFLEVSYRVLRHLAQP
modifications: N-terminal methionine, E. coli expressed
notes: glycoprotein consisting of 175 amino acids obtained by expression of a human gene in E. coli
B1: the “maturation period of neutrophils from the progenitor cells” value in series [3] was 1 days.
